Results as given in patent publication US6420405B2, “Pharmaceutical composition for angiotensin II-mediated diseases” (Takeda Chemical Industries, Ltd., priority 1993, dated 2002).

Key:
Format in all cases: in vivo, rat
[1] = system: Spontaneously Hypertensive Rats (SHR); assay: Antihypertensive activity in SHR by co-administration with a diuretic drug (Test Example 1, tail cuff); conditions: for blood pressure, 1 week / blood pressure, 2 weeks / blood pressure, 1 day: 5 hr after administration; for blood pressure, 1 week / blood pressure, 2 weeks / blood pressure, 1 day / blood pressure, Before admin.: male SHR; for blood pressure, Before admin.: before administration (baseline); for antihypertensive action: SHR
Procedure: Antihypertensive Activity in Spontaneously Hypertensive Rats (SHR) by the Co-administration with a Diuretic Drug Method: […] The respective groups were administered orally with the compound 1(0.1 or 1 mg/kg,p.o.) or HCT (10 mg/kg, p.o.) alone or both drugs simultaneously once a day for two weeks.

[2] = system: Spontaneously Hypertensive Rats (SHR); assay: Antihypertensive activity in SHR by co-administration with a calcium antagonistic drug (Test Example 2, tail cuff); conditions: for blood pressure, 1 week / blood pressure, 2 weeks / blood pressure, 1 day: 5 hr after administration; for blood pressure, 1 week / blood pressure, 2 weeks / blood pressure, 1 day / blood pressure, Before admin.: male SHR; for blood pressure, Before admin.: before administration (baseline)
Procedure: Antihypertensive Activity in Spontaneously Hypertensive Rats (SHR) by the Co-administration with a Calcium Antagonistic Drug
Method: Male SHR of 20 week old were divided into six groups (five animals per group). The respective groups were administered orally with the compound 1 (0.1 or 1 mg/kg, p.o.) or MDP (3 mg/kg, p.o.) alone or with a mixture of them once a day for two weeks. On the first, 7th and 14th day at 5 hr after the administration, blood pressure of each test animal was measured by the tail cuff method under unanesthesia.

[3] = system: Spontaneously Hypertensive Rats (SHR); assay: Antihypertensive activity in SHR by co-administration with a diuretic drug (Test Example 3, compound 2, tail cuff); conditions: for blood pressure, 1 week / blood pressure, 2 weeks / blood pressure, 1 day: 5 hr after administration; for blood pressure, 1 week / blood pressure, 2 weeks / blood pressure, 1 day / blood pressure, Before admin.: male SHR; for blood pressure, Before admin.: before administration (baseline); for antihypertensive action: SHR
Method: Method: Male SHR of 20 week old were divided into 6 groups (five animals in one group). The respective groups were administered orally with the compound 2 (0.1 or 1 mg/kg,p.o.) or HCT (10 mg/kg, p.o.) alone or both drugs simultaneously once a day for two weeks. On the first, 7th and 14th day at 5 hr after the administration, blood pressure of each test animal was measured by the tail cuff method under unanesthesia.

CCOc1nc2cccc(C(=O)OC(C)OC(=O)OC3CCCCC3)c2n1Cc1ccc(-c2ccccc2-c2nnn[nH]2)cc1 (racemic) [Cpd. 1, (±)-1-(cyclohexyloxycarbonyloxy)ethyl 2-ethoxy-1-[[2′-(1H-tetrazol-5-yl)biphenyl-4-yl]methyl]-1H-benzimidazole-7-carboxylate]
blood pressure, 1 week ([1]; Cpd. 1 0.1 mg/kg/day p.o.): 155 ± 3 mmHg
blood pressure, 2 weeks ([1]; Cpd. 1 0.1 mg/kg/day p.o.): 162 ± 3 mmHg
blood pressure, 1 day ([1]; Cpd. 1 0.1 mg/kg/day p.o.): 161 ± 5 mmHg
blood pressure, Before admin. ([1]; Cpd. 1 0.1 mg/kg/day p.o.): 183 ± 2 mmHg
blood pressure, 1 week ([1]; Cpd. 1 1 mg/kg/day p.o.): 138 ± 2 mmHg
blood pressure, 2 weeks ([1]; Cpd. 1 1 mg/kg/day p.o.): 135 ± 3 mmHg
blood pressure, 1 day ([1]; Cpd. 1 1 mg/kg/day p.o.): 153 ± 5 mmHg
blood pressure, Before admin. ([1]; Cpd. 1 1 mg/kg/day p.o.): 186 ± 2 mmHg
antihypertensive action ([1]; compound 1 alone, 0.1 and 1 mg/kg/day): dose dependent antihypertensive action
blood pressure, 1 week ([2]; Cpd. 1 0.1 mg/kg/day p.o.): 158 ± 4 mmHg
blood pressure, 2 weeks ([2]; Cpd. 1 0.1 mg/kg/day p.o.): 160 ± 4 mmHg
blood pressure, 1 day ([2]; Cpd. 1 0.1 mg/kg/day p.o.): 157 ± 2 mmHg
blood pressure, Before admin. ([2]; Cpd. 1 0.1 mg/kg/day p.o.): 190 ± 2 mmHg
blood pressure, 1 week ([2]; Cpd. 1 1 mg/kg/day p.o.): 131 ± 13 mmHg
blood pressure, 2 weeks ([2]; Cpd. 1 1 mg/kg/day p.o.): 142 ± 4 mmHg
blood pressure, 1 day ([2]; Cpd. 1 1 mg/kg/day p.o.): 148 ± 3 mmHg
blood pressure, Before admin. ([2]; Cpd. 1 1 mg/kg/day p.o.): 196 ± 3 mmHg
antihypertensive effect ([2]; compound 1 alone, 0.1 and 1 mg/kg/day, SHR): dose dependent antihypertensive effect

CCOc1nc2cccc(C(=O)O)c2n1Cc1ccc(-c2ccccc2-c2nc(=O)o[nH]2)cc1 [Cpd. 2, 2-ethoxy-1-[[2′-(2,5-dihydro-5-oxo-1,2,4-oxadiazole-3-yl)biphenyl-4-yl]methyl]-1H-benzimidazole-7-carboxylic acid]
blood pressure, 1 week ([3]; Cpd. 2 0.1 mg/kg/day p.o.): 182 ± 6 mmHg
blood pressure, 2 weeks ([3]; Cpd. 2 0.1 mg/kg/day p.o.): 191 ± 8 mmHg
blood pressure, 1 day ([3]; Cpd. 2 0.1 mg/kg/day p.o.): 187 ± 6 mmHg
blood pressure, Before admin. ([3]; Cpd. 2 0.1 mg/kg/day p.o.): 215 ± 5 mmHg
blood pressure, 1 week ([3]; Cpd. 2 1 mg/kg/day p.o.): 161 ± 4 mmHg
blood pressure, 2 weeks ([3]; Cpd. 2 1 mg/kg/day p.o.): 165 ± 3 mmHg
blood pressure, 1 day ([3]; Cpd. 2 1 mg/kg/day p.o.): 175 ± 5 mmHg
blood pressure, Before admin. ([3]; Cpd. 2 1 mg/kg/day p.o.): 219 ± 7 mmHg
antihypertensive action ([3]; compound 2 alone, 0.1 and 1 mg/kg/day): dose dependent antihypertensive action

NS(=O)(=O)c1cc2c(cc1Cl)NCNS2(=O)=O [HCT, hydrochlorothiazide, reference compound]
blood pressure, 1 week ([1]; HCT 10 mg/kg/day p.o.): 177 ± 3 mmHg
blood pressure, 2 weeks ([1]; HCT 10 mg/kg/day p.o.): 181 ± 2 mmHg
blood pressure, 1 day ([1]; HCT 10 mg/kg/day p.o.): 178 ± 3 mmHg
blood pressure, Before admin. ([1]; HCT 10 mg/kg/day p.o.): 186 ± 3 mmHg
antihypertensive action ([1]; HCT alone, 10 mg/kg/day, p.o.): did not show antihypertensive action
blood pressure, 1 week ([3]; HCT 10 mg/kg/day p.o.): 190 ± 5 mmHg
blood pressure, 2 weeks ([3]; HCT 10 mg/kg/day p.o.): 195 ± 3 mmHg
blood pressure, 1 day ([3]; HCT 10 mg/kg/day p.o.): 188 ± 5 mmHg
blood pressure, Before admin. ([3]; HCT 10 mg/kg/day p.o.): 206 ± 5 mmHg
antihypertensive action ([3]; HCT alone, 10 mg/kg/day, p.o.): did not show antihypertensive action

COC(=O)C1=C(C)NC(C)=C(C(=O)OCCN2CCN(C(c3ccccc3)c3ccccc3)CC2)C1c1cccc([N+](=O)[O-])c1 (centres unmarked) [MDP, manidipine, reference compound]
blood pressure, 1 week ([2]; MDP 3 mg/kg/day p.o.): 132 ± 5 mmHg
blood pressure, 2 weeks ([2]; MDP 3 mg/kg/day p.o.): 136 ± 7 mmHg
blood pressure, 1 day ([2]; MDP 3 mg/kg/day p.o.): 157 ± 2 mmHg
blood pressure, Before admin. ([2]; MDP 3 mg/kg/day p.o.): 190 ± 5 mmHg
